Laboratory results published in the supplement of paper PMC13380429.

Columns and labels:
Conditions in all cases: 72 h
Caco-2 [1] = test: cell viability relative to DMSO; higher = less toxic
Calu-3 [2] = test: as above
HepG2 [3] = test: as above
U2OS [4] = test: as above
Vero E6 [5] = test: as above
Caco-2 [6] = test: relative viability EC50 (midpoint between 100% and the lowest measured viability); higher = less toxic
Calu-3 [7] = test: as above
HepG2 [8] = test: as above
U2OS [9] = test: as above
Vero E6 [10] = test: as above
Caco-2 [11] = test: drug sensitivity score (DSS) for viability; higher = more toxic; extreme values may be limits of the assay
Calu-3 [12] = test: as above
HepG2 [13] = test: as above
U2OS [14] = test: as above
Vero E6 [15] = test: as above

Compound	cell viability (Caco-2 [1]; 1 nM) [%]	cell viability (Caco-2 [1]; 10 nM) [%]	cell viability (Caco-2 [1]; 100 nM) [%]	cell viability (Caco-2 [1]; 1000 nM) [%]	cell viability (Caco-2 [1]; 10000 nM) [%]	cell viability (Calu-3 [2]; 1 nM) [%]	cell viability (Calu-3 [2]; 10 nM) [%]	cell viability (Calu-3 [2]; 100 nM) [%]	cell viability (Calu-3 [2]; 1000 nM) [%]	cell viability (Calu-3 [2]; 10000 nM) [%]	cell viability (HepG2 [3]; 1 nM) [%]	cell viability (HepG2 [3]; 10 nM) [%]	cell viability (HepG2 [3]; 100 nM) [%]	cell viability (HepG2 [3]; 1000 nM) [%]	cell viability (HepG2 [3]; 10000 nM) [%]	cell viability (U2OS [4]; 1 nM) [%]	cell viability (U2OS [4]; 10 nM) [%]	cell viability (U2OS [4]; 100 nM) [%]	cell viability (U2OS [4]; 1000 nM) [%]	cell viability (U2OS [4]; 10000 nM) [%]	cell viability (Vero E6 [5]; 1 nM) [%]	cell viability (Vero E6 [5]; 10 nM) [%]	cell viability (Vero E6 [5]; 100 nM) [%]	cell viability (Vero E6 [5]; 1000 nM) [%]	cell viability (Vero E6 [5]; 10000 nM) [%]	relative viability EC50 (Caco-2 [6]) [µM]	relative viability EC50 (Calu-3 [7]) [µM]	relative viability EC50 (HepG2 [8]) [µM]	relative viability EC50 (U2OS [9]) [µM]	relative viability EC50 (Vero E6 [10]) [µM]	drug sensitivity score (Caco-2 [11])	drug sensitivity score (Calu-3 [12])	drug sensitivity score (HepG2 [13])	drug sensitivity score (U2OS [14])	drug sensitivity score (Vero E6 [15])
O=C(NCCN1CCCCC1)c1ccc(I)cc1 [N-[2-(piperidinylamino)ethyl]-4-iodobenzamide]	96.4	99.6	105	92.1	91.2	101	89.4	94.6	92.7	116	103	91.8	103	99.1	91.3	103	97.5	97	91.3	95.5	101	99.6	96.5	99.3	93.4	> 10	> 10	> 10	> 10	> 10	0	0	0	0	0
O=C(NCc1ccc(OC(F)(F)F)cc1)C1c2ccccc2C(=O)N1C1CCOCC1 (stereo not given) [NAV-26]	100	90.6	105	96.8	99.2	103	97.6	93.8	99.5	100	107	91.6	96.7	112	112	99.3	94.5	99	95.9	91	95.7	101	88.7	98.9	107	> 10	> 10	> 10	> 10	> 10	0	0	0	0	0
CCCN(CCC)CCc1ccc(OC)c(OCCc2ccccc2)c1 [NE-100]	105	102	89.8	92.9	91.3	95.1	93.5	85.9	107	105	101	98.5	98.6	99.3	93	105	100	104	101	97.9	107	106	99.3	103	94.8	> 10	> 10	> 10	> 10	> 10	0.1	0	0	0	0
Cc1c(-c2ccccc2F)[nH]c(N)c1C#N [NS-8]	96.9	90.1	105	97.5	105	104	101	83.6	103	99.2	93.1	98.3	90.7	96.9	116	98.1	95.9	99.8	93.9	103	95.2	99.1	96.2	97.7	109	> 10	> 10	> 10	> 10	> 10	0	0	0	0	0
C[C@H](Nc1cc(-c2cnn(C)c2)cc(Nc2cnccn2)n1)c1ccc(F)cc1 [NS-018]	99.1	102	104	83.6	32	96.4	89.1	91.9	62.7	42	101	102	102	75.6	3.1	97.6	95.1	100	87.6	26.4	106	100	99.7	83.4	14.5	1.58	0.517	1.54	1.88	1.76	6.3	8.1	9.1	6.1	7.4
O=C(Nc1cc(C(F)(F)F)ccc1O)Nc1cc(C(F)(F)F)ccc1O [NS-1643]	108	101	102	95	88.3	102	94.7	103	97.4	104	95.3	105	110	94.7	92.5	99.3	100	104	102	96.9	98.8	103	100	99.1	95.1	> 10	> 10	> 10	> 10	> 10	0.2	0	0	0	0
O=C(Nc1cccc(C(F)(F)F)c1)Nc1ccc(Br)cc1-c1nnn[nH]1 [NS-3623]	98	99.8	100	97.8	101	107	92.8	95.3	102	100	102	102	92.5	98.7	112	99.6	97.8	97.6	99.2	96.2	93.3	101	92.4	94.6	110	> 10	> 10	> 10	> 10	> 10	0	0	0	0	0
CCNC(=O)c1noc(-c2cc(C(C)C)c(O)cc2O)c1-c1ccc(CN2CCOCC2)cc1 [NVP-AUY922]	100	77.1	30.3	28.2	31.4	84.2	83.9	46	37.3	29.6	103	27.5	1.2	0.8	1.2	93	57.9	3	3.5	1	104	106	47.1	26.6	25.6	0.0149	0.0281	0.0067	0.012	0.0702	25.1	20.5	38.6	34.8	19.8
Cn1c(=O)n(-c2ccc(C(C)(C)C#N)cc2)c2c3cc(-c4cnc5ccccc5c4)ccc3ncc21 [NVP-BEZ235]	98.6	102	85.2	40.1	40.3	95.4	98.5	77.2	40.6	28.7	99.7	110	98.4	71.8	30.1	101	99.9	98.9	37.9	20.7	98.4	102	93.9	57.5	38.1	0.156	0.209	1.19	0.585	0.552	13.4	13.7	7.5	11.7	8.8
O=[N+]([O-])c1cc(O)c(O)c([N+](=O)[O-])c1 [OR-486]	93.2	103	103	97	94.3	102	100	95.2	94	99.5	101	98.3	98.3	93.6	96.7	98.2	102	96.5	103	98	97.6	99	102	100	97	> 10	> 10	> 10	> 10	> 10	0	0	0	0	0
CCCCn1c(=O)c2[nH]c(C34CC5CC(CC3C5)C4)nc2n(CCCO)c1=O [PSB-36]	96.5	102	98	101	91.9	99	93.4	98.7	91	80.4	105	95.4	103	99.3	97.3	98.5	98.9	88.6	89.1	86	99.3	93.5	98.1	84.9	100	> 10	> 10	> 10	> 10	> 10	0	1.1	0	1.7	0
COc1cc2nc(N3CCN(C(=O)COc4c(OC)cccc4C(C)C)CC3)nc(N)c2cc1OC [Rec-15/2615]	84.3	102	101	90.1	84.4	98.7	102	97.3	95.4	84.8	91.2	92.1	103	92	83.7	96.4	97.9	94.3	95.9	84.2	98.8	99.3	99.4	99.6	95.5	> 10	> 10	> 10	> 10	> 10	1	0.4	1	0.1	0
N[C@@H](Cc1cc(CP(=O)(O)O)cc(-c2ccccc2Cl)c1)C(=O)O [SDZ-220-581]	102	91.5	91	101	111	107	92.8	101	98.6	114	96	99.6	92.6	101	104	99.8	99.3	96.8	106	105	95.8	102	92.7	95.9	107	> 10	> 10	> 10	> 10	> 10	0	0	0	0	0
CN(C)c1cccc(Oc2cnc(Nc3cccc(O)c3)nc2)c1 [SEN-1269]	96.5	102	102	96.3	82.3	94.5	99.7	100	95.4	102	102	104	93.8	93	99.9	101	102	95.5	99.5	94.8	98	94.4	95.9	89.2	93.4	> 10	> 10	> 10	> 10	> 10	0.9	0	0	0	0
